Data as given in patent US12642801B2, “Pharmaceutical composition for preventing or treating rheumatoid arthritis and health functional food” (SEOUL NATIONAL UNIVERSITY R&DB FOUNDATION, priority 2021, dated 2026).

What was measured:
[1] = tested on: spleen and the lymph nodes; assay: Expansion of spleen and lymph tissues (inguinal and mesenteric lymph nodes); format: in vivo, mice; settings: compared to the control, FIG. 8
Method: In the examples of the present invention, efficacies of the composition of the present invention were investigated by establishing animal models CIA or SIA with animal diseases similar to rheumatoid arthritis of the human body. Specifically, 100 μl of 250 μg or 500 μg of the compound YKL-05-099 (CAS No.: 1936529-65-5) shown in FIG. 1 was intraperitoneally (i.p.) administered to a mouse weighed 25 g (that is, 10 mg or 20 mg per 1 kg) once a day. […] Disease-free mice without administration of antigens were used as a negative control, and the compared results are shown in FIG. 8.

[2] = tested on: TNF-α, IL-6, IFN-γ, IL-17a; assay: Inflammatory cytokines in peripheral blood by ELISA, CIA mice; format: in vivo; settings: ELISA at time of sacrifice, FIG. 10
Method: (§1) In the examples of the present invention, efficacies of the composition of the present invention were investigated by establishing animal models CIA or SIA with animal diseases similar to rheumatoid arthritis of the human body. Specifically, 100 μl of 250 μg or 500 μg of the compound YKL-05-099 (CAS No.: 1936529-65-5) shown in FIG. 1 was intraperitoneally (i.p.) administered to a mouse weighed 25 g (that is, 10 mg or 20 mg per 1 kg) once a day.
(§2) After administering YKL-05-099 to the rheumatoid arthritis animal model, essential inflammatory cytokines to induce rheumatoid arthritis such as TNF-α and IL-6, the representative immunoreactive cytokine of TH1 such as IFN-γ, and the representative immunoreactive cytokine of TH17 such as 1L-17a within peripheral blood at a time of sacrificing the mouse were subjected to analysis through enzyme linked immunosorbent assay (ELISA). Specifically, cytokine analysis was implemented using ELISA kit products according to instructions of Invitrogen Co., wherein the used product serial numbers are anti-IFN-γ (88-7314), anti-TNF-α (88-7324), anti-IL-17a (88-7371) and anti-IL-6 (88-7064). Disease-free mice without administration of antigens were used as a negative control. […] FIG. 10 illustrates measured results of cytokines in CIA mice while FIG. 11 illustrates measured results of cytokines in SIA mice, respectively.

[3] = tested on: SIA mice; assay: Rheumatoid arthritis clinical score in SIA mice; format: in vivo; settings: 10 mg/kg or 20 mg/kg, score 0-4 per paw, four paws combined, FIG. 7
Method: as §1
(§3) With regard to rheumatoid arthritis animal models CIA and SIA, respectively, rheumatoid arthritis clinical score was investigated. Disease-free mice without administration of antigen were used as a negative control. The clinical scores were determined depending on significance as follows: 0 (no symptom); 1 (slight edema on the soles or toes); 2 (significant edema throughout the soles and toes); 3 (significant to serious edema throughout the paw); 4 (serious edema and distortion throughout the paw), and then, the results for four paws were combined. FIG. 6 illustrates the results for CIA mice, and FIG. 7 illustrates the results for SIA mice, respectively.

[4] = tested on: SIA mice; assay: Edema of paws and joints / paw thickness in SIA mice; format: in vivo
Method: In the present invention, “SIA” is used for an animal model suffering from rheumatoid arthritis and means “serum transfer arthritis.”
as §1
(§4) After i.p. administration of YKL-05-099 in an amount of 10 mg/kg or 20 mg/kg to mice having rheumatoid arthritis once a day, improvement of edema in the paws was investigated. For definite measurement and comparison, the most swollen portion of the paw was measured in multiple times, and collected numerical values of paw thickness were recorded and compared. Disease-free mice without administration of antigens were used as a negative control.
(§5) FIG. 4 illustrates measured results of the paw thickness of CIA mice while FIG. 5 illustrates measured results of the paw thickness of SIA mice, respectively.

[5] = tested on: CD4+ Foxp3+ cells (Treg); assay: Treg cell level in spleen cells of CIA mice by flow cytometry; format: in vivo; settings: for ratio of CD4+ Foxp3+ cells as a marker for Treg: spleen live cells, CIA+Veh 12.24±0.34%, sham 10.725±0.53%
Method: After i.p. administration of YKL-05-099 in an amount of 10 mg/kg or 20 mg/kg to the rheumatoid arthritis model CIA mice once a day, spleen cells were isolated at a time of sacrificing the mice to investigate Treg cell levels. Immune cell assay was performed through flow cytometry, and the experiment was implemented according to product instructions of Invitrogen Co. Specifically, the spleen cells were isolated to prepare 1×10^6 cells/100 μl of single cells, followed by staining live/dead cells using fixable viability dye (Invitrogen, eFluor™780, 65-0865-14), and then blocking the same using anti-CD16/32 (Invitrogen, 14-0161). Following this, the above product was stained using anti-CD4 (Invitrogen, RM4-5, mice) and anti-Foxp3 (Invitrogen, FJK-16s, mice). The stained cells were subjected to measurement of a ratio of CD4^+ Foxp3^+ cells as a marker for Treg in live cells isolated through flow cytometry.
FIGS. 12A and 12B illustrate the above measured results. From the results of measuring a ratio of CD4^+ Foxp3^+ cells as a marker for Treg, it was confirmed that sham (disease-free mice) is 10.725±0.53%, CIA+Veh is 12.24±0.34%, CIA+YKL-05-099 10 mg/kg is 14.2±1.28%, CIA+YKL-05-099 20 mg/kg is 14.98±1.16%, respectively. Using unpaid parametric Welch's corrected t-test (two-tailed), p-value was indicated. With regard to statistically significant levels, p-value is 0.05 or less, wherein significance was represented by *p<0.05, **p<0.01 and ***p<0.001. Sham vs CIA+Veh p-value is 0.0045, CIA+YKL-05-099 10 mg/kg vs CIA+Veh p-value is 0.0119, CIA+YKL-05-099 20 mg/kg vs CIA+Veh p-value is 0.0046, CIA+YKL-05-099 10 mg/kg vs sham p-value is 0.0005, and CIA_YKL-05-099 20 mg/kg vs sham p-value is 0.0004.

[6] = tested on: CIA mice; assay: Rheumatoid arthritis clinical score in CIA mice; format: in vivo; settings: 10 mg/kg or 20 mg/kg, score 0-4 per paw, four paws combined, FIG. 6
Method: as §1, §3

[7] = tested on: CIA mice; assay: Edema of paws and joints / paw thickness in CIA mice; format: in vivo
Method: In the present invention, “CIA” is used for an animal model suffering from rheumatoid arthritis and means “collagen-induced arthritis.”
as §1, §4, §5

[8] = tested on: CIA mice; assay: Bone loss around paw joint (micro CT) in CIA mice; format: in vivo; settings: bone amount in the paw joint, FIG. 9
Method: FIG. 9 is photographs taken through micro CT and graphs showing effects of inhibiting reduction of bone loss around the joints in the embodiments of the present invention.
as §1

[9] = tested on: CD11b+ F4/80+ cells (macrophage cells); assay: Macrophage cell level in spleen cells of CIA mice by flow cytometry; format: in vivo; settings: for ratio of CD11b+ F4/80+ cells as a marker for macrophage cells: spleen live cells, CIA+Veh 1.854±0.41%, sham 0.355±0.08%
Method: In order to confirm mitigation effects of increase in immune active macrophage cells in the spleen, after i.p. administration of YKL-05-099 in an amount of 10 mg/kg or 20 mg/kg to the rheumatoid arthritis model CIA mice once a day, spleen cells were isolated at a time of sacrificing the mice to investigate macrophage cell levels. FIGS. 13A and 13B illustrate the above results of investigating macrophage cell levels. Immune cell assay was performed through flow cytometry, and the experiment was implemented according to product instructions of Invitrogen Co.
Specifically, the spleen cells were isolated to prepare 1×10^6 cells/100 μl of single cells, followed by staining live/dead cells using fixable viability dye (Invitrogen, eFluor™780, 65-0865-14), and then blocking the same using anti-CD16/32 (Invitrogen, 14-0161). Following this, the above product was stained using anti-CD11b (Invitrogen, M1/70) and anti-F4/80 (Invitrogen, BM8). The stained cells were subjected to measurement of a ratio of CD11b^+ F4/80^+ cells as a marker for macrophage cells in live cells isolated through flow cytometry.
From the result of measuring a ratio of CD11b^+ F4/80^+ cells as a marker for macrophage cells, it was confirmed that sham is 0.355±0.08%, CIA+Veh is 1.854±0.41%, CIA+YKL-05-099 10 mg/kg is 1.043±0.30%, CIA+YKL-05-099 20 mg/kg is 0.975±0.12%, respectively. Using unpaid parametric Welch's corrected t-test (two-tailed), p-value was indicated. With regard to statistically significant levels, p-value is 0.05 or less, wherein significance was represented by *p<0.05, **p<0.01 and ***p<0.001. CIA+Veh vs sham p-value is 0.0009, CIA+YKL-05-099 20 mg/kg vs CIA+Veh p-value is 0.0057, CIA+YKL-05-099 10 mg/kg vs sham p-value is 0.0019, CIA+YKL-05-099 20 mg/kg vs sham p-value is 0.0002, and CIA+YKL-05-099 10 mg/kg vs CIA+Veh p-value is 0.0076.

[10] = tested on: TNF-α, IL-6, IFN-γ, IL-17a; assay: Inflammatory cytokines in peripheral blood by ELISA, SIA mice; format: in vivo; settings: ELISA at time of sacrifice, FIG. 11
Method: as §1, §2

Structure (SMILES): COc1ccc(N2C(=O)N(c3c(C)cccc3Cl)Cc3cnc(Nc4ccc(C5CCN(C)CC5)cc4OC)nc32)nc1 [YKL-05-099]
- expansion of the spleen and the lymph nodes [1]: greatly suppressed
- inflammatory cytokines (TNF-α, IL-6, IFN-γ, IL-17a) within peripheral blood [2]: greatly suppressed
- rheumatoid arthritis clinical scores [3]: significantly reduced
- edema of the paws and around the joints (visually observed) ([4]; 10 mg/kg or 20 mg/kg i.p. once a day, compared to the control, FIG. 3): remarkably improved
- paw thickness ([4]; vs vehicle administered group, FIG. 5): remarkably thinner
- ratio of Treg cells compared to CIA+Veh ([5]; 10 mg/kg and 20 mg/kg): statistically significant increase
- ratio of CD4+ Foxp3+ cells as a marker for Treg ([5]; 10 mg/kg i.p. once a day, p vs Veh 0.0119): 14.2±1.28%
- ratio of CD4+ Foxp3+ cells as a marker for Treg ([5]; 20 mg/kg i.p. once a day, p vs Veh 0.0046): 14.98±1.16%
- rheumatoid arthritis clinical scores [6]: significantly reduced
- edema of the paws and around the joints (visually observed) ([7]; 10 mg/kg or 20 mg/kg i.p. once a day, compared to the control, FIG. 2): remarkably improved
- paw thickness ([7]; vs vehicle administered group, FIG. 4): remarkably thinner
- bone loss in paw joint [8]: significantly inhibited
- ratio of macrophage cells compared to CIA+Veh ([9]; 10 mg/kg and 20 mg/kg): statistically significant decrease
- ratio of CD11b+ F4/80+ cells as a marker for macrophage cells ([9]; 10 mg/kg i.p. once a day, p vs Veh 0.0076): 1.043±0.30%
- ratio of CD11b+ F4/80+ cells as a marker for macrophage cells ([9]; 20 mg/kg i.p. once a day, p vs Veh 0.0057): 0.975±0.12%
- inflammatory cytokines (TNF-α, IL-6, IFN-γ, IL-17a) within peripheral blood [10]: greatly suppressed
